Experimental data reported in PubChem BioAssay AID248 (DTP/NCI, 2004).
Several values for one entry are separate records, joined by “and”; a condition that tells them apart may be missing. Equal entries are not always repeated. Inconclusive results and toxic doses are left out.

System: L1210 leukemia ip in BDF1 mice, survival T/C
Assay: NCI In Vivo Anticancer Drug Screen. Data for tumor model L1210 Leukemia (intraperitoneal) in B6D2F1 (BDF1) mice
Settings: endpoint: mean survival time, higher = longer survival
Outline: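 Tumor was transplanted into mice, which were then dosed with test compound or vehicle alone. Survival was recorded for each group, and the treated figure was expressed relative to the control figure.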

[1] = dose: 25.0 mg/kg/injection, schedule: Q01DX009 (ip), vehicle: saline
[2] = dose: 50.0 mg/kg/injection, schedule: Q01DX009 (ip), vehicle: saline
[3] = dose: 100.0 mg/kg/injection, schedule: Q01DX001 (ip), vehicle: saline
[4] = dose: 100.0 mg/kg/injection, schedule: Q01DX009 (ip), vehicle: saline
[5] = dose: 100.0 mg/kg/injection, schedule: Q04DX002 (ip), vehicle: saline with Tween-80
[6] = dose: 200.0 mg/kg/injection, schedule: Q04DX002 (ip), vehicle: saline with Tween-80
[7] = dose: 100.0 mg/kg/injection, schedule: Q01DX001 (ip), vehicle: saline with Tween-80
[8] = dose: 75.0 mg/kg/injection, schedule: Q01DX001 (ip), vehicle: saline
[9] = dose: 150.0 mg/kg/injection, schedule: Q01DX001 (ip), vehicle: saline
[10] = dose: 300.0 mg/kg/injection, schedule: Q01DX001 (ip), vehicle: saline
[11] = dose: 50.0 mg/kg/injection, schedule: Q01DX009 (ip), vehicle: Klucel (hydroxypropylcellulose) (HPC)
[12] = dose: 100.0 mg/kg/injection, schedule: Q01DX009 (ip), vehicle: Klucel (hydroxypropylcellulose) (HPC)
[13] = dose: 100.0 mg/kg/injection, schedule: Q04DX003 (ip), vehicle: Klucel (hydroxypropylcellulose) (HPC)
[14] = dose: 200.0 mg/kg/injection, schedule: Q01DX009 (ip), vehicle: Klucel (hydroxypropylcellulose) (HPC)
[15] = dose: 200.0 mg/kg/injection, schedule: Q04DX003 (ip), vehicle: Klucel (hydroxypropylcellulose) (HPC)
[16] = dose: 400.0 mg/kg/injection, schedule: Q04DX003 (ip), vehicle: Klucel (hydroxypropylcellulose) (HPC)
[17] = dose: 200.0 mg/kg/injection, schedule: Q01DX009 (ip), vehicle: saline
[18] = dose: 400.0 mg/kg/injection, schedule: Q01DX009 (ip), vehicle: saline
[19] = dose: 100.0 mg/kg/injection, schedule: Q04DX002 (ip), vehicle: Klucel (hydroxypropylcellulose) (HPC)
[20] = dose: 200.0 mg/kg/injection, schedule: Q04DX002 (ip), vehicle: Klucel (hydroxypropylcellulose) (HPC)
[21] = dose: 400.0 mg/kg/injection, schedule: Q04DX002 (ip), vehicle: Klucel (hydroxypropylcellulose) (HPC)
[22] = dose: 100.0 mg/kg/injection, schedule: Q01DX001 (ip), vehicle: carboxymethylcellulose (CMC)
[23] = dose: 200.0 mg/kg/injection, schedule: Q01DX001 (ip), vehicle: carboxymethylcellulose (CMC)
[24] = dose: 400.0 mg/kg/injection, schedule: Q01DX001 (ip), vehicle: carboxymethylcellulose (CMC)

CN(C)c1ccc2c(c1)Cc1cc(N=C3C=CC(=O)O3)ccc1-2
T/C [1]: 100 % of control | T/C (dose: 25.0 mg/kg/injection, schedule: Q04DX003 (ip), vehicle: acetone): 95 % of control | T/C [2]: 97 % of control | T/C (dose: 50.0 mg/kg/injection, schedule: Q04DX003 (ip), vehicle: acetone): 92 % of control | T/C [3]: 89 % of control | T/C [4]: 94 % of control | T/C (dose: 100.0 mg/kg/injection, schedule: Q04DX003 (ip), vehicle: acetone): 88 % of control

O=C(O)/C(=C/c1ccccc1)c1ccccc1
T/C [5]: 95 % of control and 96 % of control | T/C [6]: 96 % of control and 88 % of control

NC1CCC(OC(=O)C23CC4CC(CC(C4)C2)C3)CC1 (stereo not drawn)
T/C [7]: 94 % of control

CCCCN(CCCC)C(=S)[S-].CCCCN(CCCC)C(=S)[S-].[Zn]
T/C (dose: 37.5 mg/kg/injection, schedule: Q01DX009 (ip), vehicle: saline): 90 % of control | T/C [8]: 88 % of control | T/C (dose: 75.0 mg/kg/injection, schedule: Q01DX009 (ip), vehicle: saline): 90 % of control | T/C (dose: 75.0 mg/kg/injection, schedule: Q04DX003 (ip), vehicle: saline): 98 % of control | T/C [9]: 93 % of control | T/C (dose: 150.0 mg/kg/injection, schedule: Q01DX009 (ip), vehicle: saline): 86 % of control | T/C (dose: 150.0 mg/kg/injection, schedule: Q04DX003 (ip), vehicle: saline): 87 % of control | T/C [10]: 89 % of control | T/C (dose: 300.0 mg/kg/injection, schedule: Q04DX003 (ip), vehicle: saline): 93 % of control

CN(C)CC(C)(C)CN1c2ccccc2Sc2ccccc21
T/C (dose: 3.12 mg/kg/injection, schedule: Q01DX009 (ip), vehicle: saline): 90 % of control | T/C (dose: 6.25 mg/kg/injection, schedule: Q01DX009 (ip), vehicle: saline): 103 % of control | T/C (dose: 12.5 mg/kg/injection, schedule: Q01DX009 (ip), vehicle: saline): 101 % of control | T/C [1]: 97 % of control | T/C (dose: 25.0 mg/kg/injection, schedule: Q04DX003 (ip), vehicle: saline): 101 % of control | T/C [2]: 106 % of control | T/C (dose: 50.0 mg/kg/injection, schedule: Q04DX003 (ip), vehicle: saline): 91 % of control | T/C [4]: 100 % of control

CC(=O)C1C=NCCN=CC(C(C)=O)C(C)=NCCCN=C1C.[Ni] (stereo not drawn)
T/C [11]: 101 % of control | T/C [12]: 105 % of control | T/C [13]: 100 % of control | T/C [14]: 103 % of control | T/C [15]: 95 % of control | T/C [16]: 106 % of control

COC(c1ccccc1)(c1ccccc1)N(C)C
T/C (dose: 50.0 mg/kg/injection, schedule: Q01DX001 (ip), vehicle: saline): 97 % of control | T/C [3]: 105 % of control | T/C (dose: 200.0 mg/kg/injection, schedule: Q01DX001 (ip), vehicle: saline): 97 % of control | T/C (dose: 400.0 mg/kg/injection, schedule: Q01DX001 (ip), vehicle: saline): 94 % of control

O=c1[nH][nH]c(Cc2ccccc2)c1-c1ccccc1
T/C [13]: 102 % of control | T/C [15]: 98 % of control | T/C [16]: 101 % of control

C#CC1(NC(c2cc(Cl)cc(Cl)c2O)P(=O)(c2ccccc2)c2ccccc2)CCCCC1 (stereo not drawn)
T/C [12]: 94 % of control | T/C [14]: 102 % of control

CC(N)(CO)C(=O)O (stereo not drawn)
T/C [4]: 100 % of control | T/C [17]: 105 % of control | T/C [18]: 107 % of control

CC1(C)OC2C3COC(O3)C(O)C2O1 (stereo not drawn)
T/C [5]: 99 % of control | T/C [6]: 99 % of control | T/C (dose: 400.0 mg/kg/injection, schedule: Q04DX002 (ip), vehicle: saline with Tween-80): 96 % of control

CCCCCC1CCC(O)CC1 (stereo not drawn)
T/C [12]: 95 % of control | T/C [13]: 106 % of control | T/C [14]: 90 % of control | T/C [15]: 111 % of control | T/C (dose: 400.0 mg/kg/injection, schedule: Q01DX009 (ip), vehicle: Klucel (hydroxypropylcellulose) (HPC)): 105 % of control | T/C [16]: 103 % of control

CC1=CC(C)(C)Nc2ccccc21
T/C [4]: 118 % of control | T/C (dose: 100.0 mg/kg/injection, schedule: Q04DX003 (ip), vehicle: saline): 106 % of control | T/C [17]: 103 % of control | T/C (dose: 200.0 mg/kg/injection, schedule: Q04DX003 (ip), vehicle: saline): 101 % of control | T/C [18]: 116 % of control | T/C (dose: 400.0 mg/kg/injection, schedule: Q04DX003 (ip), vehicle: saline): 91 % of control

C/C=C/C=C/C(=O)NO
T/C [11]: 93 % of control | T/C (dose: 62.0 mg/kg/injection, schedule: Q03HX024 (ip), vehicle: saline): 101 % of control | T/C [12]: 102 % of control | T/C (dose: 125.0 mg/kg/injection, schedule: Q03HX024 (ip), vehicle: saline): 94 % of control | T/C (dose: 177.0 mg/kg/injection, schedule: Q01DX009 (ip), vehicle: carboxymethylcellulose (CMC)): 117 % of control | T/C (dose: 177.0 mg/kg/injection, schedule: Q01DX009 (ip), vehicle: saline): 94 % of control | T/C [14]: 104 % of control | T/C (dose: 266.0 mg/kg/injection, schedule: Q01DX009 (ip), vehicle: saline): 117 % of control | T/C [18]: 121 % of control | T/C (dose: 600.0 mg/kg/injection, schedule: Q01DX009 (ip), vehicle: saline): 165 % of control

COC(=O)c1nnn(S(=O)(=O)c2ccc(C)cc2)c1C(=O)OC
T/C [19]: 91 % of control | T/C [20]: 95 % of control | T/C [21]: 91 % of control

CN(CC(O)CN)c1ccc(Cl)cc1 (stereo not drawn)
T/C (dose: 25.0 mg/kg/injection, schedule: Q01DX001 (ip), vehicle: saline with Tween-80): 104 % of control | T/C (dose: 50.0 mg/kg/injection, schedule: Q01DX001 (ip), vehicle: saline with Tween-80): 101 % of control | T/C [7]: 100 % of control and 103 % of control

CC1(C)CC=CC(COC(=O)c2ccccc2C(=O)O)C1 (stereo not drawn)
T/C [22]: 102 % of control | T/C [23]: 107 % of control | T/C [24]: 96 % of control

N#CCCP(=S)(CCC#N)CCC#N
T/C [19]: 94 % of control | T/C [20]: 112 % of control | T/C [21]: 105 % of control

CCCCCSc1nc(N)nc2nc[nH]c12
T/C (dose: 50.0 mg/kg/injection, schedule: Q01DX Z (ip), vehicle: methylcellulose (MC)): 117 % of control | T/C [8]: 106 % of control | T/C (dose: 135.0 mg/kg/injection, schedule: Q01DX009 (ip), vehicle: saline): 98 % of control | T/C [9]: 109 % of control | T/C [17]: 104 % of control | T/C (dose: 200.0 mg/kg/injection, schedule: Q01DX Z (ip), vehicle: methylcellulose (MC)): 104 % of control | T/C [10]: 101 % of control | T/C (dose: 300.0 mg/kg/injection, schedule: Q01DX009 (ip), vehicle: saline): 119 % of control

O=C1c2cc(F)ccc2-c2cc(Br)c([N+](=O)[O-])cc21
T/C [22]: 97 % of control | T/C [23]: 103 % of control | T/C [24]: 95 % of control

COC(=O)c1ccccc1NC(=O)Nc1cccc(C(F)(F)F)c1
T/C [19]: 101 % of control | T/C [20]: 92 % of control | T/C [21]: 105 % of control

CNC(=O)c1ccc(C(=O)NC)cc1
T/C (dose: 100.0 mg/kg/injection, schedule: Q04DX003 (ip), vehicle: saline with Tween-80): 94 % of control | T/C (dose: 200.0 mg/kg/injection, schedule: Q04DX003 (ip), vehicle: saline with Tween-80): 103 % of control | T/C (dose: 400.0 mg/kg/injection, schedule: Q04DX003 (ip), vehicle: saline with Tween-80): 100 % of control

CC(C#N)CN1CC1 (stereo not drawn)
T/C (dose: 20.0 mg/kg/injection, schedule: Q01DX001 (ip), vehicle: Klucel (hydroxypropylcellulose) (HPC)): 101 % of control

O=[N+]([O-])c1ccc(Oc2cccc([N+](=O)[O-])c2)cc1
T/C (dose: 222.0 mg/kg/injection, schedule: Q01DX Z (ip), vehicle: methylcellulose (MC)): 90 % of control | T/C (dose: 333.0 mg/kg/injection, schedule: Q01DX Z (ip), vehicle: methylcellulose (MC)): 95 % of control | T/C (dose: 500.0 mg/kg/injection, schedule: Q01DX Z (ip), vehicle: methylcellulose (MC)): 92 % of control
